Experiment [1] has as its target T1, BCR (UniProt P11274).
T1 sequence (whole entry): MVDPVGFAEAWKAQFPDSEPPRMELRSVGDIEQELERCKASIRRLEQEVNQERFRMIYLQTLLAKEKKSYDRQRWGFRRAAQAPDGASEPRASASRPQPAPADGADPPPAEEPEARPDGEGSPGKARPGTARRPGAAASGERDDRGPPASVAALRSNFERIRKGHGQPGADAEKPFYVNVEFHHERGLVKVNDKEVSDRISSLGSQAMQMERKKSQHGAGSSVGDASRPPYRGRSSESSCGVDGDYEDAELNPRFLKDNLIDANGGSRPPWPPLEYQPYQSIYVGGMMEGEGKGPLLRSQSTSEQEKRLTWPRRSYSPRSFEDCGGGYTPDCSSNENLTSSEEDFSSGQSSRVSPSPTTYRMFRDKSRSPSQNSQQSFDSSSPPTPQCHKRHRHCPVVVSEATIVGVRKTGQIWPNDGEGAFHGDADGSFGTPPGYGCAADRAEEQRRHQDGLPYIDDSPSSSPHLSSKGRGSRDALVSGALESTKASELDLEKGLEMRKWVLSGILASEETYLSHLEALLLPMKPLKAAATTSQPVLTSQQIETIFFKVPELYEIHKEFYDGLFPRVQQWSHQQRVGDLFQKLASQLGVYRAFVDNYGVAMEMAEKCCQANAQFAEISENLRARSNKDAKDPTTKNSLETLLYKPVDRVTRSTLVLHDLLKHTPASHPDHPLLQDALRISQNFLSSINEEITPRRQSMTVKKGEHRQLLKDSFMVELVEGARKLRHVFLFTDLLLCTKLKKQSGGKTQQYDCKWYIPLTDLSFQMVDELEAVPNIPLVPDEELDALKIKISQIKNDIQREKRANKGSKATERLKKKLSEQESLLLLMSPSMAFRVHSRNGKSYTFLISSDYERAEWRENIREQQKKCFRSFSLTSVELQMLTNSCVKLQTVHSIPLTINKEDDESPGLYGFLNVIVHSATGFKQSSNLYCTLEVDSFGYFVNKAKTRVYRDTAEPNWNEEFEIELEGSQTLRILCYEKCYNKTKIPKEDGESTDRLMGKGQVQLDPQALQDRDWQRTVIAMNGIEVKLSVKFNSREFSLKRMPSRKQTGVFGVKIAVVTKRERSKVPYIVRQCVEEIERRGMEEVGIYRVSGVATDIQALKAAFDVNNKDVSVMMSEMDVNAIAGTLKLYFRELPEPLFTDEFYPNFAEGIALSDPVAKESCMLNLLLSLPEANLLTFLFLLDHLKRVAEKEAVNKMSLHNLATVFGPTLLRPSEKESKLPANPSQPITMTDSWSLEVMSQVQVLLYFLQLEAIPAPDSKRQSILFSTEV
The experiment can be described thus: apparent dissociation constant (depletion-corrected kinobeads competition) (-log10 M (pKd app)); higher = tighter binding. The conditions noted are these: lysate: K562 + HEK293 + human placenta lysate mix.

Experiment [2] addresses T2, MASTL (UniProt Q96GX5).
T2 sequence (whole entry): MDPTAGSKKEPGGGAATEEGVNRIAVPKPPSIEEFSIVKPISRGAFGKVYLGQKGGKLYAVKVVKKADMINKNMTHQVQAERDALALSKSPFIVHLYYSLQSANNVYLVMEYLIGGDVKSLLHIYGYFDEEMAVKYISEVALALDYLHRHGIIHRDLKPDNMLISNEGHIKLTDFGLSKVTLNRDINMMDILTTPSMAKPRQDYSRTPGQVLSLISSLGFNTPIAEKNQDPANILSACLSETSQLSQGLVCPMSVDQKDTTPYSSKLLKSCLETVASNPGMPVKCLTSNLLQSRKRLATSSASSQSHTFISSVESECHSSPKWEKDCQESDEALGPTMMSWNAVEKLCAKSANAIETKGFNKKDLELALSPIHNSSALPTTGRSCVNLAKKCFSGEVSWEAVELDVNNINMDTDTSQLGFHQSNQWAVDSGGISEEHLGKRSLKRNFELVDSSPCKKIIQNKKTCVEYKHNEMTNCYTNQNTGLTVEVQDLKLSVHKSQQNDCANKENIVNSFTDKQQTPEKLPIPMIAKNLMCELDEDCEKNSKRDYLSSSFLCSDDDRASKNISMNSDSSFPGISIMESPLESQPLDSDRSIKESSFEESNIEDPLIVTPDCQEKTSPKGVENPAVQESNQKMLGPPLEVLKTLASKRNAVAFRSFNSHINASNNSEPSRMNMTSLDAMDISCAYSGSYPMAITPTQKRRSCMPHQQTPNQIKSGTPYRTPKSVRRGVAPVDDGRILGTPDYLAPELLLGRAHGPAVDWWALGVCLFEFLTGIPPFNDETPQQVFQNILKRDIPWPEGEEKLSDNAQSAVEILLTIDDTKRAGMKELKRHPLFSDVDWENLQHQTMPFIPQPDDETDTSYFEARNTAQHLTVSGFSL
The experiment is described as above. The conditions noted are these: lysate: K562 + HEK293 + human placenta lysate mix.

As for `Cc1nc(Nc2ncc(C(=O)Nc3c(C)cccc3Cl)s2)cc(N2CCN(CCO)CC2)n1` [dasatinib], the “apparent dissociation constant (-log10 M)” value in experiment [1] is 8.52; in experiment [2], “inactive”.
